Legend:
[1] = test system: NO; assay: NO inhibition, ELISA kit; format: biochemical; settings: mean ± SD, average of three determinations
Protocol: (§1) The 50% inhibitory concentration (IC50) values were calculated from the concentration-inhibition response curve.
(§2) Cyclooxygenases (COX-1 and COX-2) were measured by an enzyme immunoassay (EIA) kit (Cayman Chemical, Ann Arbor, MI, USA) according to the manufacturer’s instructions. TNF-R2, NF-KB, and NO were measured by ELISA kit (#79756, BPS Bioscience, USA), (#CSB-EL015761HU, Cusabio, China).

[2] = target: COX-1 (Ovis aries, UniProt P05979); parameters: method as in ref 15 (Zhang et al.); settings: ref 15 (Zhang et al.); cited from earlier work
[3] = test system: NF-KB; assay: NF-KB inhibition, ELISA kit; format: biochemical; settings: for NF- KB IC50 ± SD: mean ± SD, average of three determinations
Protocol: as §1, §2

[4] = target: T1, TNF-R2 (Homo sapiens, UniProt P20333); assay: TNF-R2 binding activity, ELISA kit; settings: mean ± SD, average of three determinations
T1 construct: purchased BPS Bioscience 79756
T1 sequence (P20333 23-257 limits assumed): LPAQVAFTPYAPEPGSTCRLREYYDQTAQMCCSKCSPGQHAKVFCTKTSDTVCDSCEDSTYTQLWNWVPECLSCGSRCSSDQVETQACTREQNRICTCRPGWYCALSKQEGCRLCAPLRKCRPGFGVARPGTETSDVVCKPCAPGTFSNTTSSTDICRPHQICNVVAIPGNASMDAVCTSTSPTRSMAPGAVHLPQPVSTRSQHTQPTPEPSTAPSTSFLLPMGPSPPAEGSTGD

[5] = target: T2, COX-2 (Homo sapiens, UniProt P35354); parameters: purchased Cayman Chemical; method as in ref 15 (Zhang et.al 2006); settings: ref 15 (Zhang et.al 2006); cited from earlier work
T2 sequence (P35354 18-604): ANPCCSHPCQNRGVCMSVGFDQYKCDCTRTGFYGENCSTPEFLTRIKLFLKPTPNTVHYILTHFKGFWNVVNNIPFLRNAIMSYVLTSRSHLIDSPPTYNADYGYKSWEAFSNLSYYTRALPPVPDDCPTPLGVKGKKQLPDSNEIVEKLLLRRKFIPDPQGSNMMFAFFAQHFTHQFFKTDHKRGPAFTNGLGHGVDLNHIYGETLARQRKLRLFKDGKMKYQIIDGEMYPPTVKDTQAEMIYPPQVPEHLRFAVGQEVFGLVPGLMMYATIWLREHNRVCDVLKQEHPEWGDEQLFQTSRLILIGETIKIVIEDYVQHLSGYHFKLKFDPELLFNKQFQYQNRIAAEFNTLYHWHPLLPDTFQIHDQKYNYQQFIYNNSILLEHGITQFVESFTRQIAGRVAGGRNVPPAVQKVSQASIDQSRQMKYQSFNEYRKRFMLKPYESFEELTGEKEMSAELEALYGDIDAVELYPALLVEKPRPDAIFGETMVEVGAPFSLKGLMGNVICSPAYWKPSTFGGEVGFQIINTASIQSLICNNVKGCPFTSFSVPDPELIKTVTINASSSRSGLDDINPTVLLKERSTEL

[6] = target: T2, COX-2; assay: COX-2 inhibition, enzyme immunoassay (EIA) kit
Protocol: All enzyme inhibition activities were performed in triplicate and were examined using the sample t-test using the SPSS 26.0 program at (p < 0.05) (Table 1).

COX-1, sequence (P05979 25-600): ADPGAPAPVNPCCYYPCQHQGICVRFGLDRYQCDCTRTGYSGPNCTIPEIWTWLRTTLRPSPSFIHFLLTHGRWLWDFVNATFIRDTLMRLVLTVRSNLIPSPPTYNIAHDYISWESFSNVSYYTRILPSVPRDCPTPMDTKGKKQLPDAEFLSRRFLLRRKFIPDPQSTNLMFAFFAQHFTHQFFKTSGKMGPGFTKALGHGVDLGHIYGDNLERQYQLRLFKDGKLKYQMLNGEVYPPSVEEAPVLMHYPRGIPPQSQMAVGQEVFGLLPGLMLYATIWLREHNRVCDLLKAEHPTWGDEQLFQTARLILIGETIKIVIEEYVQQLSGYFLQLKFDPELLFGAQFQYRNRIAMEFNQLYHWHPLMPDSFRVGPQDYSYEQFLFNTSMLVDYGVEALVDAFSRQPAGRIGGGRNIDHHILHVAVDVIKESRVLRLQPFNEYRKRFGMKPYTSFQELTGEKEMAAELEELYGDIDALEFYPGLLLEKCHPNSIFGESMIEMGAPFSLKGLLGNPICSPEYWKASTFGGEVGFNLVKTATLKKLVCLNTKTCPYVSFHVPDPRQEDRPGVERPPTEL

SMILES	NO IC50 ± SD [1]	Inhibitory effects on COX-1 (in words) [2]	Suppression of NF-KB (in words) [3]	NF- KB IC50 ± SD [3]	IC50 [4]	Inhibitory activity against COX-2 (in words) [5]	COX-2 inhibitory activity (in words) [6]	IC50 [6]
O=[N+]([O-])c1cccc2cn[nH]c12 [7-nitroindazole, 7-nitroindazole, reference compound]	49.20 ± 0.80 µg/mL	–	–	–	–	–	–	–
COc1cc(O)c2c(c1)O[C@H](c1ccc(O)cc1)CC2=O [Compound C1, (2S)-5,4'-dihydroxy-7-methoxyflavanone]	82.00 ± 1.06 µg/mL	moderate inhibitory effects	significantly moderate suppression	0.01007 ± 9e-05 ng/mL	0.031 µM	no inhibitory activity	moderate inhibitory activity	11.3 µM
O=C(O)/C=C/c1ccccc1 [Compound C2, (E)-cinnamic acid]	66.00 ± 0.69 µg/mL	–	significantly moderate suppression	0.00877 ± 7e-05 ng/mL	0.0515 µM	–	–	34.6 µM
COc1cc(O)c2c(c1)O[C@H](c1ccc(O)cc1)[C@@H](O)C2=O [Compound C4, 7-O-methyl aromadendrin]	76.40 ± 1.74 µg/mL	moderate inhibitory effects	significantly moderate suppression	0.00933 ± 3e-05 ng/mL	0.0276 µM	no inhibitory activity	moderate inhibitory activity	8.44 µM
O=C(C=Cc1ccccc1)OCC1OC(OC(=O)C=Cc2ccccc2)C(O)C(O)C1O [Compound C5, 1,6-dicinnamoyl-O-α-D-glucopyranoside]	38.00 ± 0.04 µg/mL	–	–	0.00607 ± 7e-05 ng/mL	0.0117 µM	–	–	2.63 µM
COc1cc(/C=C/C(=O)CC(=O)/C=C/c2ccc(O)c(OC)c2)ccc1O [Curcumin, reference compound]	–	–	–	0.0078 ± 3e-05 ng/mL	–	–	–	–
